# Measured values published in patent publication US20120277298A1, “FLAVANONES-CONTAINING FOOD COMPOSITIONS” (NESTEC S.A., priority 2009, published 2012).
# Assay: Particle size distribution of hesperidin by laser diffraction (Malvern Mastersizer 2000)
# Type: physicochemical
# Experimental: The particle size distribution is observed using a microscopy optic LEICA DMR (mode Differential Interference Contrast and polarisation). The particle size distribution is measured by laser diffraction using a Malvern Mastersizer 2000.
compound,measurement,setting,value
"COc1ccc([C@@H]2CC(=O)c3c(O)cc(O[C@@H]4O[C@H](CO[C@@H]5O[C@@H](C)[C@H](O)[C@@H](O)[C@H]5O)[C@@H](O)[C@H](O)[C@H]4O)cc3O2)cc1O [Commercially available hesperidin, hesperidin]",% of cumulative distribution of hesperidin particle size below 20 microns,"0.1% hesperidin in water, Example 1",40%
same,% of cumulative distribution < 20 microns of hesperidin in water,"hesperidin in water, Example 4",Average 40%
